Measured values reported in US20140161827A1, “COMPOSITIONS AND METHODS FOR TREATING CANCER” (University of Virginia Patent Foundation, priority 2011, published 2014).
Where a SMILES comes first, the peptide text is derived from it. The star is where a group is joined. Cbz = O=C(OCc1ccccc1)*; CH2F = FC*

Columns and labels:
[1] = system: LTED (long-term estrogen deprived) cells; experiment: Growth inhibition and drug interaction assay (nuclei count, combination index), LTED; assay type: cell-based, human
Method: When the combination index is equivalent to one (CI=1), this means the two drugs work together in an additive manner. […] The effective dose one (D1) is then plotted on the x-axis and the effective dose two (D2) was plotted on the y-axis. The plotting of the effective dose (ED) can be is done at Fa equals 0.5, 0.75, 0.9 and 0.95. This generates the isobologram.
Cells were plated in six-well plates at a density of 60,000 cells per well. Two days later, the cells were treated in triplicate as described in the descriptions of the figures. At the end of treatment, cells were rinsed twice with saline. Nuclei were prepared by sequential addition of 1 mL HEPES-MgCl2 solution (0.01 mol/L HEPES and 1.5 mmol/L MgCl2) and 0.1 mL ZAP solution [0.13 mol/L ethylhexadecyldimethylammonium bromide in 3% glacial acetic acid (v/v)] and were counted using a Coulter counter (BeckmanCoulter, Inc., Fullerton, Calif.). […] The combination index and values with a mean and standard deviation were calculated using the Monte Carlo simulation using the computer software CalcuSyn from Biosoft (Cambridge, U.K.) [10].
The nature of the interaction between the agents was evaluated by the combination index method of Chou and Talalay [8,9]. […]
Where D is the dose that yields x % growth inhibition and α=0 for mutually exclusive drugs and α=1 for mutually non-exclusive drugs. Synergy as calculated and defined by the CalcuSyn software as a CI<1; additivity is CI=1 and antagonism is CI>1[10].

[2] = system: MCF-7-5C cells; experiment: Apoptosis in MCF-7-5C cells, E2 and T-DM-1 alone and in combination; assay type: cell-based; conditions: agent alone
[3] = system: MCF-7 cells; experiment: Growth inhibition and drug interaction assay (nuclei count, combination index), MCF-7; assay type: cell-based; conditions: Homo sapiens, MCF7, FIG. 3, read-out: concentration with 50% inhibitory effect
From the text: We examined some of these agents in both the non-adapted cell lines (See FIGS. 4, 6, 8) and adapted cell lines (See FIGS. 5, 7, 9). We treated breast cancer cells with increasing concentrations of the individual drugs followed by testing with their combinations. We determined the number of cells that were killed (fraction affected, fa) and the number of cells that were not affected by the drug (fraction unaffected, fu) (See FIG. 4). Then dose effect curves are transformed into their corresponding linear forms by the median-effect plot where y=log(fa/fu) vs. x=log (D)[8,34]. From the median effect plot the combination index (CI) can be determined. […]
Cells were plated in six-well plates at a density of 60,000 cells per well. […] Nuclei were prepared by sequential addition of 1 mL HEPES-MgCl2 solution (0.01 mol/L HEPES and 1.5 mmol/L MgCl2) and 0.1 mL ZAP solution [0.13 mol/L ethylhexadecyldimethylammonium bromide in 3% glacial acetic acid (v/v)] and were counted using a Coulter counter (BeckmanCoulter, Inc., Fullerton, Calif.). […] The combination index and values with a mean and standard deviation were calculated using the Monte Carlo simulation using the computer software CalcuSyn from Biosoft (Cambridge, U.K.).
The nature of the interaction between the agents was evaluated by the combination index method of Chou and Talalay. […]

[4] = system: LTED cells; experiment: FTS-induced apoptosis and caspase involvement in LTED cells; assay type: cell-based, human
Method: FTS has been reported to invoke cell death through caspase activation in non-breast tissues. To address whether FTS was promoting death of breast cancer cells by activation of caspases LTED cells were treated with either vehicle, FTS, or FTS in the presence of increasing concentrations of the pan-caspase inhibitor z-VAD-fmk (See FIG. 1C top panel). […] Caspase-8 activity does appear to increase; however this is not inhibited by Z-IETD-FMK. See FIG. 2, showing a time course bar graph (2A) and a cell viability versus concentration curve (2B) displaying (FIG. 2A) the effect of FTS and curcumin in combination on wild type MCF-7 cells; and (FIG. 2B) the effect of FTS alone or in combination with curcumin on MCF-7 cell viability.

[5] = system: LTED cells; experiment: Levels of apoptotic proteins in treated LTED cells (immunoblot of cytosolic and mitochondrial fractions, immunoprecipitation); assay type: cell-based, human; conditions: for Mcl-1 level: FTS 75 μM 0-48 h (by 24 h) or estradiol 0-48 h; for Bim level (BimEL, BimL): FTS 75 μM 0-48 h or estradiol 0-48 h (early time points 4, 8 h); for Survivin level: FTS 75 μM (from 8 to 16 h, undetectable at 24 and 48 h) or estradiol; for Phospho JNK level: FTS 75 μM over 48 hours or estradiol; for Cytochrome c level in the cytosol / Smac (Smac/Diablo) level in the cytosol: FTS at 24 and 48 h, estradiol by 48 h
Method: The inventors herein initially examined the class of proteins which influences MOMP (mitochondrial outer membrane pore) formation, a key component of the intrinsic pathway of apoptosis. Pro-apoptotic members such as Bax, Bim, and Bak, promote the release of Cytochrome c from the mitochondria, whereas anti-apoptotic members, such as Bcl-2 and Mcl-1, prevent release. The balance of pro-apoptotic and anti-apoptotic Bcl-2 proteins therefore influences the fate of the cell. LTED cells were treated with 75 μM FTS for 0, 4, 8, 16, 24 and 48 h with examination of cytosolic fractions (FIG. 1A).
To ascertain whether Bax was activated in FTS-treated LTED cells, Bcl-2 was immunoprecipitated and then probed for Bim and Bax (See FIG. 1B). Probed cell extracts were probed with the use of an antibody that recognizes only the conformationally altered Bax protein. […] The pro-apoptotic effect of Bim is predominantly through its binding to Bcl-2 that ablates Bcl-2 pro-survival function. As shown in FIG. 1B we found the interaction between Bim and Bcl-2 is increased, whereas the interaction between Bax and Bcl-2 was reduced. As evidence of the exodus of proteins through mitochondrial membrane pores, Cytochrome c and Smac levels in the cytosol were increased at 24 and 48 h, times when Mcl-1 was decreased and Bim, increased (FIG. 1A). […] After showing these effects on MOMP, other key factors involved in apoptosis were examined.
Cells were treated with estradiol for 0, 2, 4, 8, 24 and 48 h and cytosolic fractions prepared. […] Mitochondrial fractions (FIG. 1D, right panel), confirmed the increase in Bim isoforms. […] Because Bim appeared to be critical for estradiol-mediated apoptosis, we carried out a titration of E2, probed for Bim and found it increased over time (See FIG. 1E).
Cells grown in 100 mm dishes were washed with cold PBS and extracted with 1 ml lysis buffer (50 mM Tris-HCl, 150 mM NaCl, 5 mM EDTA, 25 mM NaF, 2 mM NaVO4, 5% glycerol, 1% Triton X-100, 10 μg/ml leupeptin, aprotinin, and pepstatin). Samples were incubated on ice for 30 min, sonicated, and centrifuged at 14,000 rpm for 10 min at 4° C. Supernatants containing 0.5 mg total protein were incubated with antibody against the target protein at 4° C. overnight before addition of 40 μl Protein G beads (Invitrogen) and continued incubation at 4° C. for 2 h. The protein G beads with immunocomplex were centrifuged at 14,000 rpm for 20 sec. The supernatant was carefully removed. The beads were washed twice with 1 ml buffer II (20 mM MOPS, 2 mM EGTA, 5 mM EDTA, 25 mM NaF, 40 mM β-glycerophosphate, 10 mM sodium pyrophosphate, 2 mM NaVO4, 0.5% Triton X-100, 1 mM PMSF, 10 μg/ml leupeptin, aprotinin, and pepstatin) and then boiled in 50 μl 2× Laemmli's buffer. The samples were subjected to electrophoresis in 10% SDS polyacrylamide gel followed by immunoblotting.

[6] = FTS-treated LTED cells, Bcl-2 immunoprecipitation

Compound	induction of apoptosis [2]	Mcl-1 level ([5]; LTED cells)	Bim level (BimEL, BimL) ([5]; LTED cells)	Survivin level ([5]; LTED cells)	Phospho JNK level ([5]; LTED cells)	Cytochrome c level in the cytosol ([5]; LTED cells)	Smac (Smac/Diablo) level in the cytosol ([5]; LTED cells)	further results
COc1cc(/C=C/C(=O)CC(=O)/C=C/c2ccc(O)c(OC)c2)ccc1O [curcumin]								concentration at which initial effects in reducing cell number were observed ([1]; dose response, preliminary studies): 250 nM; concentration showing effects in reducing cell number, later studies ([1]; later studies): 125 nM
T-DM1	induced apoptosis							
CC[C@@H](C(=O)[C@@H](C)[C@@H](O)[C@H](C)[C@@H]1O[C@@H]([C@@H](CC)C(=O)O)CC[C@@H]1C)[C@H]1O[C@]2(C=C[C@@H](O)[C@]3(CC[C@@](C)([C@H]4CC[C@](O)(CC)[C@H](C)O4)O3)O2)[C@H](C)C[C@@H]1C [Salinomycin]								IC50 [3]: 2000 nM
COC(=O)C[C@H](NC(=O)[C@H](C)NC(=O)[C@@H](NC(=O)OCc1ccccc1)C(C)C)C(=O)CF [z-VAD-fmk] (Cbz-Val-Ala-Asp(OMe)-CH2F)								effect on FTS-induced apoptosis ([4]; LTED cells, FTS plus increasing concentrations of pan-caspase inhibitor): blocked
CC(C)=CCC/C(C)=C/CC/C(C)=C/CSc1ccccc1C(=O)O [FTS, S-trans, trans-Farnesylthiosalicyclic acid]		decrease	increase	decreased	increased	increased	increased	Apoptosis inducing factor (AIF) in the cytosol ([5]; FTS-treated LTED cells): appeared in the cytosol only at 48 h; interaction between Bax and Bcl-2 [5, 6]: reduced; interaction between Bim and Bcl-2 [5, 6]: increased; Bax activation (conformationally altered Bax) ([5]; FTS-treated LTED cells, conformation-specific antibody): underwent a conformational change; Bcl-2 level ([5]; LTED cells, FTS 75 μM 0-48 h, cytosolic fractions): unchanged; XIAP level ([5]; LTED cells, FTS 75 μM or estradiol): did not change; p21 level ([5]; LTED cells, FTS 75 μM, from 4 h to 48 h): steady decrease; cell number ([1]; FTS alone, doses 25, 50, 75 and 100 μM): 14 % of control; caspase-8 changes (death receptor pathway) ([4]; FTS-treated LTED cells): no substantial caspase-8 changes
C[C@]12CC[C@@H]3c4ccc(O)cc4CC[C@H]3[C@@H]1CC[C@@H]2O [E2, 17β-Estradiol]	induced apoptosis	decreased	increased	not	increased	released into the cytosol	released into the cytosol	Bok level ([5]; LTED cells, titration of E2): increased in a concentration-dependent manner
